Drawing on patent US10538555B2, “Macrocyclic inhibitors of the PD-1/PD-L1 and CD80(B7-1)/PD-L1 protein/protein interactions” (BRISTOL-MYERS SQUIBB COMPANY, priority 2014, dated 2020), this text covers IC50 for eleven compounds.

pIC50: −log10 of the molar value. *1 amine or outer side, *2 acyl side, *3 side chain or, on linkers, in order; H or OH if unused. Where a SMILES comes first, the peptide text is derived from it. Bridges are numbered along the chain shown (N, C = ends). [ ]: non-standard residue; d: D form. ξ: configuration not given here. Trp(1-CH2COOH) = N[C@@H](Cc1cn(CC(=O)O)c2ccccc12)C(=O)O; Trp(βS-Me) = C[C@@H](c1c[nH]c2ccccc12)[C@H](N)C(=O)O; Phe(3,4,5-F3) = N[C@@H](Cc1cc(F)c(F)c(F)c1)C(=O)O; Phe(2,4-Cl2) = N[C@@H](Cc1ccc(Cl)cc1Cl)C(=O)O; X8 = O=C([C@H](CC1CNc2ccccc21)N[*:1])[*:2]; Phe(4-F) = N[C@@H](Cc1ccc(F)cc1)C(=O)O; d(cisHyp) = O=C(O)[C@H]1C[C@@H](O)CN1; Hyp = O=C(O)[C@@H]1C[C@@H](O)CN1; NMeF = CN[C@@H](Cc1ccccc1)C(=O)O; X1 = O=C([C@H]1COCCN1[*:1])[*:2]; dPip(4-aza) = O=C(O)[C@H]1CNCCN1; X9 = NN[C@H](N[*:1])C(=O)[*:2]; NMehSer = CN[C@@H](CCO)C(=O)O; NMeNle = CCCC[C@H](NC)C(=O)O; dPip = O=C(O)[C@H]1CCCCN1; hSer = N[C@@H](CCO)C(=O)O; NMeA = CN[C@@H](C)C(=O)O; Orn = NCCC[C@H](N)C(=O)O; Dab = NCC[C@H](N)C(=O)O; Dap = NC[C@H](N)C(=O)O; ξC = NC(CS)C(=O)O

In the test the target is T1, Human PD-L1/PD-1 (Homo sapiens, UniProt Q9NZQ7).
T1 construct: TVMV protease cleavage site (C); made in house; host or cells: HEK293T cells
The experiment in a line: HTRF Human PD-L1/PD-1 binding assay (PD-1-Ig/PD-L1-His). As to conditions: PD-L1-His 10 nM, PD-1-Ig 20 nM; class symbol; read-out: HTRF Human PD-L1/PD-1 Binding Assay IC50 Range. An outline of the steps:
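HTRF read-out (665/620 nm ratio) after 30 min equilibration with Eu-cryptate anti-Ig mAb (1 nM) and APC anti-His mAb (20 nM). Peptides preincubated 15 min with PD-L1-His (10 nM), then PD-1-Ig (20 nM) added for 15 min.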

T1 sequence (Q9NZQ7 with tags, fused parts or gaps): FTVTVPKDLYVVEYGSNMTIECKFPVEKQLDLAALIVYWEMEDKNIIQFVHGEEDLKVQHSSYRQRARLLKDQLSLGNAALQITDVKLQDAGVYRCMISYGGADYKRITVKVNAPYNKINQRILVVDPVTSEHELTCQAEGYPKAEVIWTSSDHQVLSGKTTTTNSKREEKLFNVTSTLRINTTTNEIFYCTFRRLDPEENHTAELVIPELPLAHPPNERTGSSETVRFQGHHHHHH

As to `CCCC[C@H]1C(=O)N(C)[C@@H](CCCC)C(=O)N[C@@H](CCCNC(=N)N)C(=O)N[C@H](C(=O)NCC(N)=O)CSCC(=O)N[C@@H](Cc2ccc(O)cc2)C(=O)N(C)[C@@H](C)C(=O)N[C@@H](CC(N)=O)C(=O)N2CCC[C@H]2C(=O)N[C@@H](Cc2cnc[nH]2)C(=O)N[C@@H](CCC(=O)O)C(=O)N2C[C@H](O)C[C@H]2C(=O)N[C@@H](Cc2c[nH]c3ccccc23)C(=O)N[C@@H](CO)C(=O)N[C@@H](Cc2cn(CC(=O)O)c3ccccc23)C(=O)N1C` [Example 6228] ({CH2CO}-Y[NMeA]NPHE[Hyp]WS[Trp(1-CH2COOH)][NMeNle][NMeNle]RCG-NH2; thioether N-14), the pIC50 was 8.00 to 9.00. In the case of `CCCC[C@H]1C(=O)N(C)[C@@H](CCCC)C(=O)N[C@@H](CN)C(=O)N[C@H](C(=O)NCC(N)=O)CSCC(=O)N[C@@H](Cc2ccc(O)cc2)C(=O)N(C)[C@@H](C)C(=O)N[C@@H](CC(N)=O)C(=O)N2CCC[C@H]2C(=O)N[C@@H](Cc2c[nH]cn2)C(=O)N[C@@H](CC(C)C)C(=O)N2CCC[C@H]2C(=O)N[C@@H](Cc2c[nH]c3ccccc23)C(=O)N[C@@H](CO)C(=O)N[C@@H](Cc2c[nH]c3ccccc23)C(=O)N1C` [Example 5182] it was 7.00 to 8.00; in that of `CCCC[C@H]1C(=O)N2CCC[C@@H]2C(=O)N[C@@H](CC(=O)O)C(=O)N[C@@H](C(C)C)C(=O)N(C)[C@@H](CCOC)C(=O)N[C@@H](CCC(N)=O)C(=O)N2CCC[C@@H]2C(=O)N[C@@H](Cc2c[nH]c3ccccc23)C(=O)N[C@@H](Cc2ccc(O)cc2)C(=O)N[C@@H](CC(C)C)C(=O)N[C@H](C(=O)NCC(N)=O)CSCC(=O)N[C@@H](Cc2ccc(F)cc2)C(=O)N(C)[C@@H](Cc2ccccc2)C(=O)N1C` [Example 9223] ({CH2CO}-[Phe(4-F)][NMeF][NMeNle][dP]DV[NMehSer](Me)Q[dP]WYLCG-NH2; thioether N-13), 6.00 to 7.00; in that of `CCCC[C@H]1C(=O)N(C)[C@@H](CCCC)C(=O)N[C@@H](CCC(=O)O)C(=O)N[C@H](C(=O)NCC(N)=O)CSCC(=O)N[C@@H](Cc2ccc(O)cc2)C(=O)N(C)[C@@H](C)C(=O)N[C@@H](CC(=O)O)C(=O)N2CCC[C@H]2C(=O)N[C@@H](CN)C(=O)N[C@@H](CC(C)C)C(=O)N2C[C@H](O)C[C@H]2C(=O)N[C@@H](Cc2c[nH]c3ccccc23)C(=O)N[C@@H](CCN)C(=O)N[C@@H](Cc2c[nH]c3ccccc23)C(=O)N1C` [Example 5162] ({CH2CO}-Y[NMeA]DP[Dap]L[Hyp]W[Dab]W[NMeNle][NMeNle]ECG-NH2; thioether N-14), 8.00 to 9.00.

Regarding `CCCC[C@H]1C(=O)N(C)[C@@H](CCCC)C(=O)N[C@@H](CCCNC(=N)N)C(=O)N[C@H](C(=O)NCC(N)=O)CSCC(=O)N[C@@H](Cc2ccc(Cl)cc2Cl)C(=O)N(C)[C@@H](C)C(=O)N[C@@H](CC(N)=O)C(=O)N2CCC[C@H]2C(=O)N[C@@H](CN)C(=O)N[C@@H](CC(C)C)C(=O)N2C[C@H](O)C[C@H]2C(=O)N[C@@H](Cc2c[nH]c3ccccc23)C(=O)N[C@@H](CO)C(=O)N[C@@H](CC2CNc3ccccc32)C(=O)N1C` (some centres unmarked) [Example 7069] ({CH2CO}-[Phe(2,4-Cl2)][NMeA]NP[Dap]L[Hyp]WS[X8][NMeNle][NMeNle]RCG-NH2; thioether N-14), the pIC50 is 8.00 to 9.00.

In the case of `CCCC[C@H]1C(=O)N(C)[C@@H](CCCC)C(=O)N[C@@H](CCC(=O)O)C(=O)NC(C(=O)NCC(N)=O)CSCC(=O)N[C@@H](Cc2ccc(O)cc2)C(=O)N(C)[C@@H](C)C(=O)N[C@@H](CC(N)=O)C(=O)N2CCC[C@H]2C(=O)N[C@@H](CC(N)=O)C(=O)N[C@@H](CC(C)C)C(=O)N2C[C@H](O)C[C@H]2C(=O)N[C@@H](Cc2c[nH]c3ccccc23)C(=O)N[C@@H](CC(=O)O)C(=O)N[C@@H](Cc2c[nH]c3ccccc23)C(=O)N1C` (some centres unmarked) [Example 9173] ({CH2CO}-Y[NMeA]NPNL[Hyp]WDW[NMeNle][NMeNle]E[ξC]G-NH2; thioether N-14), the pIC50 is 6.00 to 7.00. For `CCCC[C@H]1C(=O)N2CCC[C@@H]2C(=O)N[C@@H](CC(=O)O)C(=O)N[C@@H](C(C)C)C(=O)N(C)[C@@H](Cc2ccccc2)C(=O)N[C@@H](Cc2ccc(O)cc2)C(=O)N2CCNC[C@@H]2C(=O)N[C@@H](Cc2c[nH]c3ccccc23)C(=O)N[C@@H](Cc2ccc(O)cc2)C(=O)N[C@@H](CC(C)C)C(=O)N[C@H](C(=O)NCC(N)=O)CSCC(=O)N[C@@H](Cc2cc(F)c(F)c(F)c2)C(=O)N(C)[C@@H](Cc2ccccc2)C(=O)N1C` [Example 10100] ({CH2CO}-[Phe(3,4,5-F3)][NMeF][NMeNle][dP]DV[NMeF]Y[dPip(4-aza)]WYLCG-NH2; thioether N-13) the value was 8.00 to 9.00; for `CCCC[C@H]1C(=O)N(C)[C@@H](CCCC)C(=O)N[C@@H](CCCNC(=N)N)C(=O)N[C@H](C(=O)NCC(N)=O)CSCC(=O)N[C@@H](Cc2ccc(O)cc2)C(=O)N(C)[C@@H](C)C(=O)N[C@@H](CC(N)=O)C(=O)N2CCC[C@H]2C(=O)N[C@@H](NN)C(=O)N[C@@H](CC(C)C)C(=O)N2C[C@H](O)C[C@H]2C(=O)N[C@@H](Cc2c[nH]c3ccccc23)C(=O)N[C@@H]([C@@H](C)O)C(=O)N[C@@H](Cc2c[nH]c3ccccc23)C(=O)N1C` [Example 7073] ({CH2CO}-Y[NMeA]NP[X9]L[Hyp]WTW[NMeNle][NMeNle]RCG-NH2; thioether N-14), 8.00 to 9.00; for `CCCC[C@H]1C(=O)N[C@@H](CC(=O)O)C(=O)N2CCC[C@H]2C(=O)N[C@@H](Cc2c[nH]cn2)C(=O)N[C@@H](CCC(N)=O)C(=O)N2C[C@H](O)C[C@H]2C(=O)N[C@@H]([C@@H](C)c2c[nH]c3ccccc23)C(=O)N[C@@H](CO)C(=O)N[C@@H](Cc2c[nH]c3ccccc23)C(=O)N(C)[C@@H](C)C(=O)N(C)[C@@H](C)C(=O)N[C@@H](C)C(=O)N[C@H](C(=O)NCC(N)=O)CSCC(=O)N[C@@H](Cc2ccc(O)cc2)C(=O)N1C` [Example 10539] ({CH2CO}-Y[NMeNle]DPHQ[Hyp][Trp(βS-Me)]SW[NMeA][NMeA]ACG-NH2; thioether N-14), 5.00 to 6.00.

`CCCC[C@H]1C(=O)N2CCCC[C@@H]2C(=O)N[C@@H](CC(=O)O)C(=O)N[C@@H](C(C)C)C(=O)N(C)[C@@H](Cc2ccccc2)C(=O)N[C@@H](CCC(=O)O)C(=O)N2CCOC[C@@H]2C(=O)N[C@@H](Cc2c[nH]c3ccccc23)C(=O)N[C@@H](Cc2ccc(O)cc2)C(=O)N[C@@H](CCCN)C(=O)N[C@H](C(=O)NCC(N)=O)CSCC(=O)N[C@@H](Cc2cc(F)c(F)c(F)c2)C(=O)N(C)[C@@H](Cc2ccccc2)C(=O)N1C` [Example 3641] ({CH2CO}-[Phe(3,4,5-F3)][NMeF][NMeNle][dPip]DV[NMeF]E[X1]WY[Orn]CG-NH2; thioether N-13): the pIC50 was 7.00 to 8.00.

On to `CCCC[C@H]1C(=O)N2C[C@H](O)C[C@@H]2C(=O)N[C@@H](CC(=O)O)C(=O)N[C@@H](C(C)C)C(=O)N(C)[C@@H](Cc2ccccc2)C(=O)N[C@@H](CCOC)C(=O)N2CCOC[C@@H]2C(=O)N[C@@H](Cc2c[nH]c3ccccc23)C(=O)N[C@@H](Cc2ccc(O)cc2)C(=O)N[C@@H](CC(C)C)C(=O)N[C@H](C(=O)NCC(N)=O)CSCC(=O)N[C@@H](Cc2cc(F)c(F)c(F)c2)C(=O)N(C)[C@@H](Cc2ccccc2)C(=O)N1C` [Example 10194] ({CH2CO}-[Phe(3,4,5-F3)][NMeF][NMeNle][d(cisHyp)]DV[NMeF][hSer](Me)[X1]WYLCG-NH2; thioether N-13), for which the pIC50 was 7.00 to 8.00.
